Data: article PMC10484922, “Discovery of a selective and biologically active low-molecular weight antagonist of human interleukin-1β” (Nature Communications, 2023)
“And” between values parts separate entries of the source, which are not always exact repeats. Equal entries are not always repeated. Where two headings read alike, the source gives them in different places.

Experiments:
IL-1α = biological target: T1, IL-1α (Homo sapiens, UniProt P01583); assay: TR-FRET IL-1α/hIL-1R1 receptor displacement assay; type: biochemical; conditions: read-out: TR-FRET IL-1α IC50
T1 sequence (P01583 113-271): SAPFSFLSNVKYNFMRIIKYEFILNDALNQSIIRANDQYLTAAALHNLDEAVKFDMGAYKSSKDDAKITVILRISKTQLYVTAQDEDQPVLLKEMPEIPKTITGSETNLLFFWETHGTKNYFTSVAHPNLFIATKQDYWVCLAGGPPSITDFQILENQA
Protocol: After 1 h incubation at room temperature, hIL-1R1 (1–332; Alexa 647 labeled; 50 nM final concentration) and anti-His-Europium W1024 (Perkin Elmer; Cat.No. AD0401, 1 nM final concentration) were added to a final volume of 10 μl per well. After 1 h of incubation at room temperature, time-resolved fluorescence was measured at λexc = 320 ± 20 nm, λem = 620 ± 25 nm/665 ± 25 nm using a Pherastar FSX plate reader. All experiments were run in triplicates. The data provided a typical saturation-binding curve, and the IC50 values were calculated by fitting the results to the Hill equation using Prism 7.0 and the in-house software Helios.

IL-1β [1] = biological target: T2, IL-1β (Homo sapiens, UniProt P01584); assay: protein-observed 1H-13C-HMQC NMR binding (I/Io of Leu60 Cδ1H3); parameters: Mature hIL-1β was expressed in Escherichia coli; made in house; host or cells: Escherichia coli BL21 (DE3), pET17b; conditions: for NMR I/Io values, individual experiments (Exp1-2) / NMR I/Io values, Mean: source data; for I/Io (ratio of peak intensities of Leu60 Cδ1H3 in 1H-13C-HMQC spectra in presence and absence of ligand): hIL-1β 50 µM, 500 µM compound
T2 sequence (P01584 117-269): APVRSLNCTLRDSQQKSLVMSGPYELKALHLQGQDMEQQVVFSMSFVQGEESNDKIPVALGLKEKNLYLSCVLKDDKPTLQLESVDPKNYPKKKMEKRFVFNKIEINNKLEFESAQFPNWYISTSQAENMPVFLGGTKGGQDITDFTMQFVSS
Protocol: ^1H–^13C- and ^1H–^15N-HMQC spectra were recorded on Bruker AVANCE 600 MHz and 800 MHz spectrometers equipped with TXI-cryocooled probeheads. In ligand binding experiments, protein concentrations were typically 50 μM in PBS, pH 7.4. Backbone assignments of hIL-1β in the ligand-bound state and unliganded state were obtained by a combination of a 3D triple resonance experiment HNCACB and a ^15N-edited NOESY spectrum, which were processed using TOPSPIN 3.2 and analyzed using CcpNmr AnalysisAssign 3.1.0[46]. ^15N-CEST experiments were run at weak B1 radiofrequency fields of 25 and 12.5 Hz on a Bruker AVANCE 800 MHz spectrometer with 113 increments and a total sweep width of 28 ppm in the pseudo-3D dimension. Peak intensities were extracted by fitting pseudo-Voigt lineshape models using peakipy (https://github.com/j-brady/peakipy). Fitted peak intensities were subsequently used to generate CEST profiles, and exchange parameters were fitted using ChemEx (https://github.com/gbouvignies/ChemEx).
Supplementary Figure 2. 13C-NMR and 19F-NMR reporter assays to monitor early
13C-HMQC spectra of hIL-1b (50 µM) were acquired in the presence (red) and absence (blue) of 500
µM compound and rows were extracted at the w1-frequency of the peak corresponding to Leu60 […]

IL-1β [2] = biological target: T2, IL-1β; assay: SPR binding of compounds to immobilized hIL-1β; parameters: Mature hIL-1β was expressed in Escherichia coli; made in house; host or cells: Escherichia coli BL21 (DE3), pET17b
Protocol: All SPR experiments were performed with an SPR-32 instrument (Bruker Daltonics SPR, Hamburg, Germany). SPR chips were from XanTec bioanalytics GmbH (Düsseldorf, Germany).
C-terminally avi-tagged hIL-1β protein was immobilized onto a SAHC200M chip with a neutravidin-coated surface. Immobilization was performed with a protein injection of 0.02 mg/ml IL-1β diluted in PBS pH 7.5 (Gibco 70011-036, 10×), 0.05% Tween-20 for 5 min at 10 μl/min. The running buffer for binding studies of compounds was PBS pH 7.4, 0.05% Tween-20, and 2% DMSO. For the correction of small DMSO variations between samples, injections of 6 solvent samples ranging from 1% to 3% DMSO were run. Compound measurements were performed in MICK mode (multiple injection cycles kinetic) with a dose–response of 10 concentrations. Dissociation constants for compounds (KD) were obtained by determining steady-state fit that followed the 1:1 Langmuir model.
Data analysis was performed with the Sierra Analyzer 3.4.0 software from Bruker. Signal intensities were corrected for nonspecific binding to the surface by subtracting intensities from the reference surface from those of the hIL-1β surfaces (first reference subtraction) and by subtracting the buffer injection (second reference subtraction). KD values were carried out by determining a reporting point close to the end of the injection, used for steady-state fit, in addition to a kinetic fit delivering kon- and koff-values; both fitting models followed the 1:1 Langmuir equation.
Supplementary Figure 3. De termination of binding af fi nit ie s for se l ec ted ana l ogues of 1 by SPR. a - d Gr ap hs of exemplary experimen ts are given , where the sat urat ion of hI L-1b immobil ized on a chip was monitored at various concentrations of compound 3, 12, 10, and 11, respectively. Th e saturati on reached at equ ilibri um (insert) was plo tt ed versus the admini stered concentration and the equ ilibri um bin ding constant was derived from a non-li near lea st square fitting routine. e equ ilibri um and f kinetic bin ding of (S)-2 to IL-1b (kon = 1. 15 x 105 M-1 s-1 and koff = 0. 12 s-1).

IL-1β [3] = biological target: T2, IL-1β; assay: 19F-reporter displacement assay with (S)-1 as probe; type: binding; parameters: Mature hIL-1β was expressed in Escherichia coli; made in house; host or cells: Escherichia coli BL21 (DE3), pET17b
Protocol: Protein and reporter concentrations were 10 and 40 μM, respectively. To account for changes in sample homogeneity, samples contained 1-(2,2,2-trifluoroacetyl)piperidine-4-carboxylic acid as an internal reference for scaling signal intensities. Three concentrations of the competitor were typically measured, and the related displacement of the probe was converted into Ki-values according to Dalvit and Vulpetti[17]. […] This process was automated with FRPipe, an in-house developed Python script (https://github.com/Novartis/FRPipe) that allows for streamlined analysis of such experiments. […] For visual inspection, an overview containing relevant ^19F peaks, fitting curves, and proton spectra was plotted.
Supplementary Figure 2. 13C-NMR and 19F-NMR reporter assays to monitor early structure activity relationships of analogues of 1. a, b Early structure activity relationships monitored by protein-observed and c-f 19F-NMR reporter assays, exemplified for compound 8. a 1H-13C-HMQC spectra of hIL-1b (50 µM) were acquired in the presence (red) and absence (blue) of 500 µM compound and rows were extracted at the w1-frequency of the peak corresponding to Leu60 Cd1H3. b The degree of protein binding was estimated from the ratio I/I0, where I and I0 correspond to the signal in the presence and absence of compound, respectively. c For the assessment of the KI-values, the signal intensity of a reporter molecule (S)-1 was monitored in 19F-transverse relaxation experiments run in the absence and presence of increasing amounts of compound. d All intensities were scaled to the intensity of an internal standard (all signals in panel c and d are shifted on the X-axis for clarity). e KI-values were retrieved from theoretical binding curves calculated for each compound concentration8. f One-dimensional 1H-NMR spectra were recorded for each assay mixture to assess the structural integrity and solubility of the compound in the sample.
(1 picture or pasted object on this page, not shown here)

IL-1β [4] = biological target: T2, IL-1β; assay: TR-FRET IL-1β/hIL-1R1 receptor displacement assay; type: biochemical; conditions: read-out: TR-FRET IL-1β IC50
Protocol: After 1 h incubation at room temperature, hIL-1R1 (1–332; Alexa 647 labeled; 50 nM final concentration) and anti-His-Europium W1024 (Perkin Elmer; Cat.No. AD0401, 1 nM final concentration) were added to a final volume of 10 μl per well. […] All experiments were run in triplicates.

[5] = source data, read-out: SPR Kd, Mean
[6] = source data, read-out: SPR Kd, individual experiments (Exp1-5)
[7] = steady-state fit, 1:1 Langmuir, read-out: SPR KD
[8] = 19F-reporter Ki, protein 10 μM, reporter (S)-1 40 μM
[9] = 19F-reporter, individual experiments (Exp1-58), source data

Ki (IL-1β [3]; protein 10 μM, reporter (S)-1 40 μM, read-out: 19F-reporter Ki) [µM]	Ki (IL-1β [3]; source data, read-out: 19F-reporter, individual experiments (Exp1-58))	SMILES	IC50 (IL-1α) [µM]	binding to hIL-1β by protein-observed NMR (IL-1β [1])	NMR I/Io values, individual experiments (Exp1-2) (IL-1β [1])	Kd (IL-1β [2]; [5]) [µM]	Kd (IL-1β [2]; [6])	Kd (IL-1β [2]; [7]) [µM]	I/Io (ratio of peak intensities of Leu60 Cδ1H3 in 1H-13C-HMQC spectra in presence and absence of ligand) (IL-1β [1])	NMR I/Io values, Mean (IL-1β [1])	Ki (IL-1β [3]; [8]) [µM]	Ki (IL-1β [3]; [9])	IC50 (IL-1β [4]) [µM]
–	–	O=C1Nc2cc(C(F)(F)F)ccc2C1(O)c1cc(Cl)ccc1O (stereo not shown) [Compound 1]	> 200	validated as a binder by 2D NMR	0.39 and 0.31	–	–	–	–	–	–	–	–
–	–	Cc1ccc2c(c1)NC(=O)C2(O)c1cc(C(C)C)ccc1O (stereo not shown) [Compound 3]	–	–	0.17 and 0.21	173	174 µM and 171 µM	172 ± 2	0.19 ± 0.03 (N = 2)	0.19	151 ± 78	206 µM and 96 µM	> 400
–	–	Cc1ccc2c(c1)N(C)C(=O)C2(O)c1cc(C(C)C)ccc1O (stereo not shown) [Compound 4]	–	lack of binding	0.94 and 1.02	–	–	–	0.98 ± 0.06 (N = 2)	0.98	> 1000	–	> 500
–	–	COc1ccc(Cl)cc1C1(O)C(=O)Nc2cc(C(F)(F)F)ccc21 (stereo not shown) [Compound 5]	–	lack of binding	0.95 and 1.03	–	–	–	0.99 ± 0.06 (N = 2)	0.99	> 1000	–	> 530
–	–	O=C1Nc2ccccc2C1(O)c1cc(Cl)ccc1O (stereo not shown) [Compound 6]	–	decreases protein binding	0.57 and 0.61	–	–	–	0.59 ± 0.03 (N = 2)	0.59	> 1000	–	> 500
–	–	O=C1Nc2cc(C(F)(F)F)ccc2C1(O)c1ccccc1O (stereo not shown) [Compound 7]	–	decreases protein binding	0.41 and 0.48	–	–	–	0.45 ± 0.05 (N = 2)	–	> 1000	–	> 500
–	–	Cc1ccc2c(c1)NC(=O)C2(O)c1cc(Cl)ccc1O (stereo not shown) [Compound 8]	> 200	–	0.18	–	312 µM (2×) and 158 µM	261 ± 89	0.18 ± 0.004 (N = 2)	0.18	312 ± 124	110 µM and 195 µM and 206 µM and 210 µM and 215 µM and 223 µM and 233 µM and 254 µM (2×) and 260 µM (2×) and 120 µM and 261 µM and 262 µM and 268 µM and 278 µM and 281 µM and 282 µM and 283 µM and 287 µM and 292 µM and 293 µM and 133 µM and 295 µM and 309 µM and 317 µM and 325 µM and 331 µM (3×) and 337 µM and 338 µM and 340 µM and 162 µM and 345 µM and 362 µM and 382 µM and 387 µM and 393 µM and 395 µM and 399 µM and 427 µM and 439 µM (2×) and 164 µM and 454 µM and 456 µM and 471 µM and 475 µM and 580 µM and 600 µM and 622 µM (2×) and 86 µM and 183 µM (2×) and 184 µM (2×)	> 200
–	–	O=C1Nc2cc(Cl)ccc2C1(O)c1cc(Cl)ccc1O (stereo not shown) [Compound 9]	–	–	–	–	–	–	0.3 (N = 1)	–	172 ± 35	197 µM and 147 µM	–
90 ± 41	119 µM and 61 µM	Cc1ccc(O)c(C2(c3cn[nH]c3)C(=O)Nc3cc(C(F)(F)F)ccc32)c1 (stereo not shown) [Compound 12]	> 200	–	–	138	145 µM and 130 µM	138 ± 11	<0.1 (N = 1)	–	–	–	> 200
–	–	Cc1ccc(O)c(C2(O)C(=O)Nc3cc(C(F)(F)F)ccc32)c1 (stereo not shown) [Compound 13]	–	–	–	–	–	> 1000	0.4 (N = 1)	–	–	–	–
–	–	O=C1Nc2cc(C(F)(F)F)ccc2[C@]1(O)c1cc(Cl)ccc1O [Compound (S)-1]	> 200	–	–	–	–	–	–	–	–	–	–
